# Columns and labels:
# [1] = tested on: SOD1 G93A mouse model of ALS; test: Disease duration (onset until death) in SOD1 G93A mice; format: in vivo
# From the text: Disease duration. This parameter was selected in order analyze the treatment effects under a clinically relevant situation of the time from disease onset until death. Disease duration is defined as beginning from the appearance of the first clinical symptoms until death.
# [2] = tested on: spinal cord astroglia of SOD1 G93A mice; test: GFAP positive astrocytes in ventral horn of lumbar spinal cord (astrogliosis); format: in vivo, mouse; conditions: for numbers of GFAP positive astroglia: time of death, presymptomatic
# Method: After deep anaesthesia, mice were transcardially perfused with PBS solution followed by 4% paraformaldehyde. Spinal cords, sciatic nerves and gastrocnemius muscles were removed. Spinal cords and gastrocnemius muscles were then postfixed for 2 h in 4% paraformaldehyde. Thereafter, the tissue was dehydrated in 30% sucrose overnight and kept at −20° C. until further processing. Coronal sections of the lumbar spinal cord (L3-L6) (20 μm) and horizontal sections of the tibial muscle (35 μm) were prepared using a Leica Kryostat and collected on gelatine-coated glass slides.
# (§1) Spinal cord sections selected for immunohistochemical processing were first rehydrated. Then antigen-retrieval was performed for 4 h in TBS at 60° C. for later GFAP or Iba1 labeling and for 30 min in sodium citrate (pH 9.0) at 80° C. for later ChAT labeling. After washing for one time in PBS the sections were incubated at room temperature either in PBS and 10% of normal goat serum for later GFAP labeling or in PBS and 5% normal donkey serum for later ChAT labeling to block unspecific binding. The primary antibodies (anti-ChAT 1:100, AB144 P, Millipore; anti-GFAP 1:200, DAKO; anti-Iba1 1:500, WAKO, Osaka, Japan) were applied at 4° C. for one night for GFAP and for three nights for ChAT. The secondary antibodies (Cy3 anti-goat or Cy2/Dylight anti rabbit; both Dianova) were applied on separate sections 1:300 for 1 h at room temperature. Then a nuclear counter-stain with DAPI (4,6-diamidino-2-phenylindole) (Sigma-Aldrich) was performed before mounting in Moviol (Hoechst, Frankfurt, Germany).
# (§2) Astrogliosis and microgliosis were evaluated by the quantification of GFAP or Iba1 positive cells in the ventral horn of lumbar spinal cord sections, respectively. Again, the area of the ventral horn was defined and GFAP or Iba1 positive cells were manually counted. In the d50 treatment group analyzed at death, a total of 20 mice was counted from the vehicle (3 male, 3 female), Fas30 (3 male, 3 female), Fas100 (3 male, 3 female) and wildtype (1 male, 1 female) group. In the d50 treatment group analyzed at d100, a total of 20 mice was counted from the vehicle (3 male, 3 female), Fas30 (3 male, 3 female), Fas100 (3 male, 3 female) and wildtype (1 male, 1 female) group.
# Reactive astrogliosis represents another parameter in the evaluation of histologic manifestation of ALS disease. In human ALS patients, the clinical progression of this neurodegenerative disease seems to be associated with changes in astrocytic cell infiltration in the spinal cord. Therefore, the inventors evaluated the extent of astrogliosis in the lumbar spinal cord by counting the number of GFAP positive astroglial cells in the ventral horn and normalized values to area (FIG. 12).
# [3] = tested on: spinal cord microglia of SOD1 G93A mice; test: Iba1 immunopositive microglia count in spinal cord anterior horn; format: in vivo, mouse
# Method: as §1, §2
# The extent of microglial cell dissemination in the lumbar spinal cord was evaluated with a marker of activated microglia (Iba1) as described above under the heading “Quantitative evaluation of spinal cord motoneurons and astroglia, sciatic nerve axons and NMJ”.
# [4] = tested on: primary microglia; test: Microglial viability, WST-1 metabolic activity; format: cell-based, mouse; conditions: up to 50 μM Fasudil
# Method: Microglial viability was assayed as metabolic activity using WST-1 reagent (4-[3-(4-iodophenyl)-2-(4-nitrophenyl)-2H-5-tetrazolio]-1,3-benzene disulfonate), based on the enzymatic cleavage of WST tetrazolium salt to formazan by the succinate-tetrazolium reductase system of the respiratory chain of intact mitochondria. The assay was performed according to the instructions of the manufacturer (Roche Applied Science, Mannheim, Germany). After 3 h of incubation, the resulting color reaction was measured at 450 nm (with 655 nm as the reference wavelength) in a microplate reader (Bio-Rad, Munich, Germany).
# [5] = CSF analysis after sub-occipital cistern magna puncture; format: in vivo, mouse; conditions: oral via drinking water; data not shown
# Method: To reach sufficient CSF levels of Fasudil the inventors administered Fasudil (LC Labs, Woburn, USA; product number F-4660) at a low concentration of […] (Fas30) or at a high concentration of 50 mg (Fas100) in 100 ml drinking water. Control groups received the respective amount of isotonic drinking water termed as vehicle (Veh).
# [6] = tested on: sciatic nerve axons of SOD1 G93A mice; test: Sciatic nerve axon numbers (axonal degeneration); format: in vivo, mouse; conditions: day 100, female, Fas30 vs transgenic vehicle
# Method: Sciatic nerves were removed separately and postfixed for 24 h in 4% paraformaldehyde. […] After three washing steps the nerves were embedded in […] and Propylenoxide with a ratio of first 1:1 and then 2:1, each for 35 min. Before putting into a flat mould for drying and harding, Propylenoxide had to evaporate under a hood for 1 h. The sciatic nerves embedded in […] blocks were cut with a Microtom (Leica Ultracut) into semithin sections (380 nm) and were collected on gelatine coated glass slides. […] After washing in distilled water, slices were dried and mounted in […] cuts of sciatic nerve axons were evaluated from light microscopy images for axonal numbers and axoplasm size with the semi-automated counting and size measuring tool of the Image J software. In the d50 treatment group analyzed at […], a total of 17 female mice were counted from vehicle (5), Fas30 (7), and wildtype (5).
compound,measurement,setting,value
"O=S(=O)(c1cccc2cnccc12)N1CCCNCC1 [Fasudil, 1-(5-isoquinolinesulfonyl)homopiperazine]",disease duration,[1]; presymptomatically treated female mice,prolonged time
same,disease duration,[1]; symptomatically treated groups,did not show any significant alterations
same,GFAP cell number,"[2]; day 100, female, presymptomatic Fas30 vs transgenic vehicle",significantly reduced
same,numbers of GFAP positive astroglia,"[2]; Fas30 female, vehicle female 28.91±4.7",31.6±5.9 per 0.2 mm^2
same,numbers of GFAP positive astroglia,"[2]; Fas30 male, vehicle male 31.3±4.7",38.2±4.4 per 0.2 mm^2
same,numbers of GFAP positive astroglia,"[2]; Fas100 female, vehicle female 28.91±4.7",27.9±4.0 per 0.2 mm^2
same,numbers of GFAP positive astroglia,"[2]; Fas100 male, vehicle male 31.3±4.7",29.24±4.5 per 0.2 mm^2
same,Iba1 immunopositive microglial cells,"[3]; d100, Fasudil 30, vehicle SOD1G93A 27.8±4.7, wildtype 14.0±2.8",39.5±3.9 cells/0.5 mm^2
same,Iba1 immunopositive microglial cells,"[3]; disease end-stage, Fas30, vehicle 43.2±4.2",48.8±3.3 cells/0.5 mm^2
same,Iba1 immunopositive microglial cells,"[3]; disease end-stage, Fas100, vehicle 43.2±4.2",50.2±4.7 cells/0.5 mm^2
same,microglial metabolic activity (WST-1),[4],no reduction in metabolic activity
same,blood-brain-barrier crossing (CSF analysis),[5],readily crossed the blood-brain-barrier
same,axonal number by axoplasmal diameter size range,[6],no significant differences
same,total number of preserved axons in the sciatic nerve,[6],comparable axon numbers

# From patent US9980972B2, “Rho kinase inhibitors for use in treating familial amyotrophic lateral sclerosis” (GEORG-AUGUST-UNIVERSITÄT GÖTTINGEN STIFTUNG ÖFFENTLICHEN …, priority 2012, dated 2018)
